According to ChEMBL document CHEMBL4811258, “Potent Antimalarials with Development Potential Identified by Structure-Guided Computational Optimization of a Pyrrole-Based Dihydroorotate Dehydrogenase Inhibitor Series” (J Med Chem, 2021):
The source made the active and inactive calls. The rule behind the calls is not given here.

Experiments:
[1] = Plasma clearance in Sprague-Dawley rat at […], iv measured up to 24 hrs; format: ADME, organism-based; conditions: dose 1.8 mg/kg
[2] = molecular target: Dihydroorotate dehydrogenase (quinone), mitochondrial (Rattus norvegicus, UniProt Q63707); experiment: Inhibition of rat DHODH up to 100 uM; conditions: up to 100 µM
Sequence of Dihydroorotate dehydrogenase (quinone), mitochondrial (Q63707 whole entry): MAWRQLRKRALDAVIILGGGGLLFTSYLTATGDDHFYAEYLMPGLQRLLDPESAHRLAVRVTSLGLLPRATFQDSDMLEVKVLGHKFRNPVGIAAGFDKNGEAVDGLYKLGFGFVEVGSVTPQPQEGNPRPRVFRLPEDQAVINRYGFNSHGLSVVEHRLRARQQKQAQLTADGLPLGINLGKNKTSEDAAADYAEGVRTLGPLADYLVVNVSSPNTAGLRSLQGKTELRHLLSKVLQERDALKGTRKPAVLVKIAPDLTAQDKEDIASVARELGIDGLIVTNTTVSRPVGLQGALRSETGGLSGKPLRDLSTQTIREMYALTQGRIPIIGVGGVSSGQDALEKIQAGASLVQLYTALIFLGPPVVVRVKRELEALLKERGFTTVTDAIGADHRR

Plasmodium falciparum [3] = experiment: Antiplasmodial activity against Plasmodium falciparum Dd2 Uganda infected in human erythrocytes assessed as parasite killing using albumax media measured after 72 hrs by SYBR Green assay; format: functional, organism-based; conditions: Dd2, 72 h
Plasmodium falciparum [4] = experiment: Antimalarial activity against Plasmodium falciparum 3D70087/N9 infected in orally dosed NOD-SCID IL2Rgamma null mouse assessed as parasitemia level administered days after 3 post infection once daily for 4 days measured on day 7 by flow cytometry; format: functional; conditions: time 4 day
[5] = AUC (0 to infinity) in Sprague-Dawley rat at 17 mg/kg, po measured up to 24 hrs; format: ADME, organism-based; set-up: route oral, dose 17 mg/kg, time <=24; conditions: in vivo
[6] = AUC (0 to infinity) in Swiss mouse at […], po measured up to 24 hrs by LC-MS analysis; format: ADME, organism-based; set-up: route oral, dose 2.6 mg/kg, time <=24; conditions: in vivo
[7] = Cmax in Swiss mouse at […], po measured up to 24 hrs by LC-MS analysis; format: ADME, organism-based; set-up: route oral, dose 2.6 mg/kg, time <=24; conditions: in vivo
[8] = Mutagenicity in Salmonella typhimurium by Ames test; format: toxicity; conditions: salmonella enterica subsp. enterica serovar typhimurium
[9] = Intrinsic clearance in mouse liver microsomes at 1 uM measured up to 4 hrs by LC-MS analysis; format: ADME, Microsome
[10] = Plasma clearance in Swiss mouse at […], iv measured up to 24 hrs by LC-MS analysis; format: ADME, organism-based; conditions: dose 2.3 mg/kg
Plasmodium falciparum [11] = experiment: Antimalarial activity against Plasmodium falciparum 3D70087/N9 infected in NOD-SCID IL2Rgamma null mouse assessed as parasitemia level at 50 mg/kg, po administered days after 3 post infection once daily for 4 days measured on day 7 by flow cytometry; format: functional, organism-based; conditions: time 4.0 day
[12] = Oral bioavailability in Swiss mouse at […] measured up to 24 hrs by LC-MS analysis; format: ADME, organism-based; conditions: in vivo, dose 2.6 mg/kg

## Cc1c(C2(c3ccc(C(F)(F)F)nc3)CC2)c[nH]c1C(=O)NC(C)c1nc[nH]n1 (stereo in doubt; form 1)
[1]
  clearance at 24 h: 6.8 mL/min/kg
[2]
  inhibition (INH): Not Active
Plasmodium falciparum [3]
  EC50: 6.9 nM
Plasmodium falciparum [4]
  ED50: 26 mg/kg
[5]
  AUC(0-inf): 120 µM·h
[6]
  AUC(0-inf) at 24 h: 29 µM·h
[7]
  Cmax at 24 h: 2600 nM
[8]
  Activity: Non-Toxic
[9]
  Intrinsic clearance: 11 µL/min/mg
[10]
  clearance at 24 h: 2.8 mL/min/kg
Plasmodium falciparum [11]
  Activity: Active
[12]
  bioavailability at 24 h: 74%
